Assay: xn = mol fraction of the nth substance listed
Conditions: Constant-volume piezometry

CCCCC [pentane] + CCCO
Conditions | mass density [kg/m3]
543.15 K, 9051 kPa, Fluid (supercritical or subcritical phases), x1 = 0.2 | 378.24
543.15 K, 9246 kPa, Fluid (supercritical or subcritical phases), x1 = 0.8 | 288.09
543.15 K, 9255 kPa, Fluid (supercritical or subcritical phases), x1 = 0.2 | 383.04
543.15 K, 9409 kPa, Fluid (supercritical or subcritical phases), x1 = 0.9 | 301.38
543.15 K, 9589 kPa, Fluid (supercritical or subcritical phases), x1 = 0.2 | 390.87
543.15 K, 9630 kPa, Fluid (supercritical or subcritical phases), x1 = 0.8 | 298.89
543.15 K, 9923 kPa, Fluid (supercritical or subcritical phases), x1 = 0.9 | 312.01
543.15 K, 10354 kPa, Fluid (supercritical or subcritical phases), x1 = 0.8 | 315.05
543.15 K, 11098 kPa, Fluid (supercritical or subcritical phases), x1 = 0.9 | 333.7
543.15 K, 11177 kPa, Fluid (supercritical or subcritical phases), x1 = 0.2 | 418.27
543.15 K, 11295 kPa, Fluid (supercritical or subcritical phases), x1 = 0.8 | 333.52
543.15 K, 11953 kPa, Fluid (supercritical or subcritical phases), x1 = 0.8 | 345.03
543.15 K, 12737 kPa, Fluid (supercritical or subcritical phases), x1 = 0.9 | 353.77
543.15 K, 13394 kPa, Fluid (supercritical or subcritical phases), x1 = 0.8 | 361.57
543.15 K, 15943 kPa, Fluid (supercritical or subcritical phases), x1 = 0.2 | 469.86
543.15 K, 19097 kPa, Fluid (supercritical or subcritical phases), x1 = 0.9 | 406.88
543.15 K, 19983 kPa, Fluid (supercritical or subcritical phases), x1 = 0.8 | 417.78
543.15 K, 22804 kPa, Fluid (supercritical or subcritical phases), x1 = 0.2 | 509.01
543.15 K, 31784 kPa, Fluid (supercritical or subcritical phases), x1 = 0.8 | 466.21
543.15 K, 33595 kPa, Fluid (supercritical or subcritical phases), x1 = 0.2 | 546.39
543.15 K, 42744 kPa, Fluid (supercritical or subcritical phases), x1 = 0.8 | 495.57
543.15 K, 49093 kPa, Fluid (supercritical or subcritical phases), x1 = 0.2 | 580.61
553.15 K, 1401 kPa, Gas, x1 = 0.8 | 22.49
553.15 K, 1675 kPa, Gas, x1 = 0.2 | 24.89
553.15 K, 2144 kPa, Gas, x1 = 0.8 | 36.64
553.15 K, 3159 kPa, Gas, x1 = 0.8 | 58.33
553.15 K, 3511 kPa, Gas, x1 = 0.2 | 52.93
553.15 K, 3789 kPa, Gas, x1 = 0.8 | 73.69
553.15 K, 4048 kPa, Fluid (supercritical or subcritical phases), x1 = 0.9 | 83.26
553.15 K, 4680 kPa, Gas, x1 = 0.2 | 91.28
553.15 K, 4938 kPa, Fluid (supercritical or subcritical phases), x1 = 0.8 | 106.25
553.15 K, 5296 kPa, Fluid (supercritical or subcritical phases), x1 = 0.9 | 123.17
553.15 K, 5319 kPa, Fluid (supercritical or subcritical phases), x1 = 0.2 | 114.19
553.15 K, 5611 kPa, Fluid (supercritical or subcritical phases), x1 = 0.9 | 133.93
553.15 K, 6054 kPa, Fluid (supercritical or subcritical phases), x1 = 0.8 | 140.1
553.15 K, 6100 kPa, Fluid (supercritical or subcritical phases), x1 = 0.2 | 150.13
553.15 K, 6344 kPa, Fluid (supercritical or subcritical phases), x1 = 0.9 | 163.72
553.15 K, 6388 kPa, Fluid (supercritical or subcritical phases), x1 = 0.8 | 155.82
553.15 K, 6521 kPa, Fluid (supercritical or subcritical phases), x1 = 0.2 | 175.35
553.15 K, 6714 kPa, Fluid (supercritical or subcritical phases), x1 = 0.2 | 189.36
553.15 K, 6741 kPa, Fluid (supercritical or subcritical phases), x1 = 0.8 | 169.54
553.15 K, 6874 kPa, Fluid (supercritical or subcritical phases), x1 = 0.8 | 175.77
553.15 K, 6982 kPa, Fluid (supercritical or subcritical phases), x1 = 0.9 | 189.18
553.15 K, 6985 kPa, Fluid (supercritical or subcritical phases), x1 = 0.8 | 180.56
553.15 K, 7102 kPa, Fluid (supercritical or subcritical phases), x1 = 0.2 | 219.77
553.15 K, 7277 kPa, Fluid (supercritical or subcritical phases), x1 = 0.9 | 202.08
553.15 K, 7296 kPa, Fluid (supercritical or subcritical phases), x1 = 0.8 | 192.88
553.15 K, 7439 kPa, Fluid (supercritical or subcritical phases), x1 = 0.2 | 245.11
553.15 K, 7620 kPa, Fluid (supercritical or subcritical phases), x1 = 0.2 | 258.81
553.15 K, 7669 kPa, Fluid (supercritical or subcritical phases), x1 = 0.2 | 262.51
553.15 K, 7760 kPa, Fluid (supercritical or subcritical phases), x1 = 0.9 | 220.36
553.15 K, 7786 kPa, Fluid (supercritical or subcritical phases), x1 = 0.8 | 213.54
553.15 K, 7792 kPa, Fluid (supercritical or subcritical phases), x1 = 0.2 | 271.95
553.15 K, 7945 kPa, Fluid (supercritical or subcritical phases), x1 = 0.8 | 219.29
553.15 K, 8057 kPa, Fluid (supercritical or subcritical phases), x1 = 0.2 | 290.1
553.15 K, 8082 kPa, Fluid (supercritical or subcritical phases), x1 = 0.9 | 232.72
553.15 K, 8169 kPa, Fluid (supercritical or subcritical phases), x1 = 0.9 | 236.18
553.15 K, 8267 kPa, Fluid (supercritical or subcritical phases), x1 = 0.9 | 240.57
553.15 K, 8315 kPa, Fluid (supercritical or subcritical phases), x1 = 0.8 | 234.36
553.15 K, 8323 kPa, Fluid (supercritical or subcritical phases), x1 = 0.2 | 306.36
553.15 K, 8361 kPa, Fluid (supercritical or subcritical phases), x1 = 0.9 | 243.88
553.15 K, 8384 kPa, Fluid (supercritical or subcritical phases), x1 = 0.2 | 310.58
553.15 K, 8538 kPa, Fluid (supercritical or subcritical phases), x1 = 0.2 | 318.29
553.15 K, 8586 kPa, Fluid (supercritical or subcritical phases), x1 = 0.8 | 244.98
553.15 K, 8982 kPa, Fluid (supercritical or subcritical phases), x1 = 0.8 | 258.18
553.15 K, 9164 kPa, Fluid (supercritical or subcritical phases), x1 = 0.2 | 340.74
553.15 K, 9236 kPa, Fluid (supercritical or subcritical phases), x1 = 0.2 | 343.52
553.15 K, 9433 kPa, Fluid (supercritical or subcritical phases), x1 = 0.8 | 272.13
553.15 K, 9589 kPa, Fluid (supercritical or subcritical phases), x1 = 0.9 | 281.59
553.15 K, 10042 kPa, Fluid (supercritical or subcritical phases), x1 = 0.8 | 287.95
553.15 K, 10274 kPa, Fluid (supercritical or subcritical phases), x1 = 0.9 | 301.23
553.15 K, 10469 kPa, Fluid (supercritical or subcritical phases), x1 = 0.8 | 298.75
553.15 K, 10491 kPa, Fluid (supercritical or subcritical phases), x1 = 0.2 | 378.05
553.15 K, 10735 kPa, Fluid (supercritical or subcritical phases), x1 = 0.2 | 382.84
